In one assay the test system is Nrf2-ARE activity. Type of assay: cell-based.
In assay [1] the test system is Nrf2-ARE activity in HepG2 cells. Type of assay: cell-based, human. To be noted: for ARE-luciferase activity with Nrf2 activator: HepG2 cells treated with both drug and iAs3+ (FIG. 2A, FIG. 3); for inhibitory effect on ARE-luciferase activity: HepG2 cells, basal conditions (FIG. 2A, FIG. 3).
Assay [2] has as its system Nrf2-ARE-dependent gene expression (HO1, GCLM, SRX). Conditions: THP-1 cells, concentration-dependent.
Assay [3] deals with Nrf2-ARE activity in 3T3-L1 preadipocytes. Format: cell-based, mouse.
The test system of assay [4] is Nrf2-ARE-dependent gene expression (Ho1). Kind of assay: RT-qPCR of ARE-dependent gene in HepG2 cells. Conditions: concentration-dependent, basal (FIG. 2B).
In assay [5] the test system is Nrf2-ARE activity in HaCaT cells. Format: cell-based, human.
Assay [6] relates to Nrf2-ARE-dependent gene expression (Gclc, Nqo1, Ho1). The assay can be described thus: RT-qPCR of ARE-dependent genes in 3T3-L1 preadipocytes. To be noted: 10 mM.
Where [7] appears, read: iAs3+-treated or tBHQ-treated conditions.

Where a name gives a salt, the structure may show the parent alone. Read-outs that look alike come from different tables or passages of the source.

Turning to `CC[C@@H](CO)NCCN[C@@H](CC)CO` [Ethambutol dihydrochloride], in the assay on Nrf2-ARE activity (basal conditions), the “inhibitory effect on ARE-luciferase activity” value was “concentration-dependent inhibitory effect”.
Take `NNc1ccccc1` [Phenylhydrazine]: the “inhibitory effect on ARE-luciferase activity” value with Nrf2-ARE activity (basal conditions) and with Nrf2-ARE activity (setting [7]) was “concentration-dependent inhibitory effect” each time.
As to `Nc1cnccn1` [Aminopyrazine], the “inhibitory effect on ARE-luciferase activity” value in the assay on Nrf2-ARE activity (basal conditions) and in the assay with Nrf2-ARE activity (setting [7]) was “concentration-dependent inhibitory effect” throughout.
Take `CCc1cc(C(N)=S)ccn1` [Ethionamide]: in assay [1], the “ARE-luciferase activity with Nrf2 activator” value is on record as “substantial ARE-luciferase activity” and the “inhibitory effect on ARE-luciferase activity” value was “concentration-dependent inhibitory effect”. The “gene expression (mRNA) of Heme oxygenase (HO1)” value in assay [2] (basal (FIG. 4A)) is listed as “suppresses”. In assay [2] (basal (FIG. 4B)), the “gene expression (mRNA) of GCLM” value is recorded as “suppresses”. Besides, in assay [2] (basal (FIG. 4C)), the “gene expression (mRNA) of sulfiredoxin (SRX)” value is reported as “suppresses”.
For the compound `NNC(=O)c1ccncc1` [Isoniazid], the “ARE-luciferase activity with Nrf2 activator” value is on record as “substantial ARE-luciferase activity” in assay [1]; “substantial ARE-luciferase activity” in assay [3] (3T3-L1 cells treated with both drug and iAs3+ (FIG. 1A)). The “inhibitory effect on ARE-luciferase activity” value in assay [1] is listed as “concentration-dependent inhibitory effect”; in assay [3] (3T3-L1 cells, basal conditions, 1 mM to 50 mM (FIG. 1A)), “concentration-dependent inhibitory effect”. Moreover, the “gene expression of Heme oxygenase (Ho1)” value in assay [4] and in assay [6] (basal (FIG. 1D)) was “suppresses” throughout. The “Nrf2-ARE-inhibitory effect (ARE-luciferase)” value in assay [5] is “Nrf2-ARE-inhibitory effect of isoniazid was also observed”. In addition, the “gene expression of glutamate-cysteine ligase catalytic subunit (Gclc)” value in assay [6] (basal (FIG. 1B)) is given as “suppresses”. Besides, in assay [6] (basal (FIG. 1C)), the “gene expression of NAD(P)H dehydrogenase [quinone] 1 (Ngo1)” value is “suppresses”.
Take `NNC(=O)Cc1ccccc1` [Phenylacetic hydrazide]: the “inhibitory effect on ARE-luciferase activity” value with Nrf2-ARE activity (basal conditions) and in the assay with Nrf2-ARE activity (setting [7]) was “concentration-dependent inhibitory effect” throughout.
As for `C[C@@H]1CN(c2c(F)c(N)c3c(=O)c(C(=O)O)cn(C4CC4)c3c2F)C[C@H](C)N1` [Sparfloxacin], the “inhibitory effect on ARE-luciferase activity” value in the assay with Nrf2-ARE activity (basal conditions) was “concentration-dependent inhibitory effect”.
Consider `NC(=O)c1cnccn1` [Pyrazinecarboxamide], for which the “inhibitory effect on ARE-luciferase activity” value in the assay on Nrf2-ARE activity (basal conditions) and in the assay on Nrf2-ARE activity (setting [7]) was “concentration-dependent inhibitory effect” throughout.
On to `Cc1ccc(C(=O)NN)cc1` [p-Toluic hydrazide], for which the “inhibitory effect on ARE-luciferase activity” value with Nrf2-ARE activity (basal conditions) and in the assay on Nrf2-ARE activity (setting [7]) was “concentration-dependent inhibitory effect” throughout.
Turning to `NNC(=O)c1ccco1` [2-Furoic hydrazide], the “inhibitory effect on ARE-luciferase activity” value with Nrf2-ARE activity (basal conditions) and in the assay on Nrf2-ARE activity (setting [7]) was “concentration-dependent inhibitory effect” throughout.
